Test results reported in article PMC11775380, “Discovery of Novel Nav1.7-Selective Inhibitors with the 1H-Indole-3-Propionamide Scaffold for Effective Pain Relief” (Research, 2025).

Assays:
[1] = molecular target: T1, Nav1.7 E1545A/E1600A (Homo sapiens, UniProt Q15858, E1545A/E1600A); experiment: Multiple site-directed mutagenesis, inhibition by patch clamp; type: cell-based; conditions: 1 μM
T1 construct: expressed in transfected cells; host or cells: HEK293T
Source text: (§1) To further investigate the roles of these residues in WN2-R binding, 3 combinations of double or triple site-directed mutagenesis were introduced, including Y1548A/F1609A (to investigate the function of phenyl ring-containing residues surrounding WN2-R, Fig. 4E), E1545A/E1600A (to examine the importance of negatively charged residues at the binding site entrance, Fig. 4F), and Y1548A/V1552A/M1593A (to understand the role of the outer hydrophobic wall formed by these residues in ligand binding, Fig. 4G).
(§2) Whole-cell patch-clamp recordings were conducted at 25 ± 2 °C, utilizing an EPC 10USB patch-clamp amplifier (HEKA Elektronik, Lambrecht, Germany). Pipettes, with access resistance between 2.0 and 3.0 MΩ, were pulled from borosilicate glass capillary tubes using a 2-step vertical microelectrode puller (PC-10, Narishige Group, Tokyo, Japan). Voltage-clamp recordings were obtained with PatchMaster software v2 × 73 (HEKA Elektronik) 5 min after establishing whole-cell configuration, sampled at 20 kHz, and filtered at 5 kHz. To minimize voltage errors, 80% series resistance compensation was applied. Pipettes were filled with 140 mM CsF, 10 mM NaCl, 1 mM EGTA, and 10 mM HEPES (pH=7.4, adjusted with CsOH). The external solution contained 140 mM NaCl, 2 mM CaCl2, 1 mM MgCl2, 5 mM KCl, 10 mM HEPES, and 10 mM glucose (pH=7.4, adjusted with NaOH). IC50 values were determined in HEK293T or ND7/23 cell lines by voltage clamping at −80 mV, followed by stepping to the V1/2 of inactivation for 8 s to facilitate compound binding.

[2] = molecular target: T2, Nav1.7 Y1548A/F1609A (Homo sapiens, UniProt Q15858, F1609A/Y1548A); experiment: as above; type: cell-based; conditions: 1 μM
T2 construct: expressed in transfected cells; host or cells: HEK293T
Source text: as §1, §2

[3] = molecular target: T3, Nav1.7 Y1548A/V1552A/M1593A (Homo sapiens, UniProt Q15858, M1593A/V1552A/Y1548A); experiment: as above; type: cell-based; conditions: 1 μM
T3 construct: expressed in transfected cells; host or cells: HEK293T
Source text: as §1, §2

[4] = test system: CFA inflammatory pain model of mice; experiment: CFA-induced inflammatory (chronic) pain model; type: in vivo, ICR mice; conditions: for Paw withdrawal threshold (PWT) at 1.5 h: 1.5 h post drug, 24 h after CFA
Description: The chronic pain model of mice was often used to simulate persistent pain in humans. In this model, chronic persistent pain was induced by injecting complete Freund’s adjuvant (CFA) into the right hind foot of mice. […] The chronic analgesic potential of WN2-R was evaluated using both i.g. and i.m. methods (n = 4). When administered by i.g., the PWTs of the WN2-R group and the PF-05089771 group reached their peak at 1.5 and 1 h after administration, respectively, and subsequently declined to the same level as the saline group at 2.5 h (Fig. 6D). […] When administered i.m., both the WN2-R and PF-05089771 groups reached peak PWTs at 1.5 h, and declined to the saline group level at 3 h (Fig. 6K). […] The mechanical allodynia of ICR mice (2 male and 2 female) was assessed prior to model construction using von Frey fibers according to the up–down method. Mice with paw withdraw thresholds (PWTs) remarkably deviating from the mean value were excluded from further experiments. Subsequently, 15 μl of CFA was unilaterally injected into the intraplantar surface of the right hind paw of each mice. After 24 h, the PWTs of the mice were assessed. During the i.g. administration of drugs or saline, PWTs were measured 0, 0.5, 1, 1.5, 2, and 2.5 h post drugs/saline administration. Similarly, during i.m. administration, PWTs were measured at 0, 0.5, 1, 1.5, 2, 2.5, and 3 h post drugs/saline administration.

[5] = test system: formalin-induced acute inflammatory pain model in mice; experiment: Formalin-induced inflammation pain model; type: in vivo, ICR mice; conditions: 30 min before formalin
Description: The formalin-induced acute inflammatory pain model in mice, achieved through the plantar injection of formalin aqueous solution, is another widely used model for acute inflammatory pain. This model comprises 2 stages: an initial phase ([…]) where pain is triggered by formalin's direct stimulation of nociceptive receptors on sensory neurons, followed by a second phase (15 to 40 min) characterized by persistent inflammatory pain due to tissue damage. Similarly, both i.g. and i.m. methods were used to evaluate the effect of WN2-R in this model (n = 6) (Fig. 6B and I). […] These findings were consistent across repeated experiments.
To induce the pain response, 20 μl of formalin (5%, w/v) was injected subcutaneously into the right hind paw of ICR mice (3 male and 3 female). Prior to the formalin injection, mice were preadministered with WN2-R (5 mg/kg i.g., 1 mg/kg i.m.), PF05089771 (5 mg/kg i.g., 1 mg/kg i.m.), or saline 30 min beforehand. The duration of licking/biting the injected paw was recorded every 5 min, commencing immediately after the formalin injection and continuing for 40 min. Phase I and II in this assay corresponded to the nociceptive response observed between 0 and 5 min and between 10 and 40 min, respectively.

T3 sequence (Q15858 whole entry Y1548A/V1552A/M1593A): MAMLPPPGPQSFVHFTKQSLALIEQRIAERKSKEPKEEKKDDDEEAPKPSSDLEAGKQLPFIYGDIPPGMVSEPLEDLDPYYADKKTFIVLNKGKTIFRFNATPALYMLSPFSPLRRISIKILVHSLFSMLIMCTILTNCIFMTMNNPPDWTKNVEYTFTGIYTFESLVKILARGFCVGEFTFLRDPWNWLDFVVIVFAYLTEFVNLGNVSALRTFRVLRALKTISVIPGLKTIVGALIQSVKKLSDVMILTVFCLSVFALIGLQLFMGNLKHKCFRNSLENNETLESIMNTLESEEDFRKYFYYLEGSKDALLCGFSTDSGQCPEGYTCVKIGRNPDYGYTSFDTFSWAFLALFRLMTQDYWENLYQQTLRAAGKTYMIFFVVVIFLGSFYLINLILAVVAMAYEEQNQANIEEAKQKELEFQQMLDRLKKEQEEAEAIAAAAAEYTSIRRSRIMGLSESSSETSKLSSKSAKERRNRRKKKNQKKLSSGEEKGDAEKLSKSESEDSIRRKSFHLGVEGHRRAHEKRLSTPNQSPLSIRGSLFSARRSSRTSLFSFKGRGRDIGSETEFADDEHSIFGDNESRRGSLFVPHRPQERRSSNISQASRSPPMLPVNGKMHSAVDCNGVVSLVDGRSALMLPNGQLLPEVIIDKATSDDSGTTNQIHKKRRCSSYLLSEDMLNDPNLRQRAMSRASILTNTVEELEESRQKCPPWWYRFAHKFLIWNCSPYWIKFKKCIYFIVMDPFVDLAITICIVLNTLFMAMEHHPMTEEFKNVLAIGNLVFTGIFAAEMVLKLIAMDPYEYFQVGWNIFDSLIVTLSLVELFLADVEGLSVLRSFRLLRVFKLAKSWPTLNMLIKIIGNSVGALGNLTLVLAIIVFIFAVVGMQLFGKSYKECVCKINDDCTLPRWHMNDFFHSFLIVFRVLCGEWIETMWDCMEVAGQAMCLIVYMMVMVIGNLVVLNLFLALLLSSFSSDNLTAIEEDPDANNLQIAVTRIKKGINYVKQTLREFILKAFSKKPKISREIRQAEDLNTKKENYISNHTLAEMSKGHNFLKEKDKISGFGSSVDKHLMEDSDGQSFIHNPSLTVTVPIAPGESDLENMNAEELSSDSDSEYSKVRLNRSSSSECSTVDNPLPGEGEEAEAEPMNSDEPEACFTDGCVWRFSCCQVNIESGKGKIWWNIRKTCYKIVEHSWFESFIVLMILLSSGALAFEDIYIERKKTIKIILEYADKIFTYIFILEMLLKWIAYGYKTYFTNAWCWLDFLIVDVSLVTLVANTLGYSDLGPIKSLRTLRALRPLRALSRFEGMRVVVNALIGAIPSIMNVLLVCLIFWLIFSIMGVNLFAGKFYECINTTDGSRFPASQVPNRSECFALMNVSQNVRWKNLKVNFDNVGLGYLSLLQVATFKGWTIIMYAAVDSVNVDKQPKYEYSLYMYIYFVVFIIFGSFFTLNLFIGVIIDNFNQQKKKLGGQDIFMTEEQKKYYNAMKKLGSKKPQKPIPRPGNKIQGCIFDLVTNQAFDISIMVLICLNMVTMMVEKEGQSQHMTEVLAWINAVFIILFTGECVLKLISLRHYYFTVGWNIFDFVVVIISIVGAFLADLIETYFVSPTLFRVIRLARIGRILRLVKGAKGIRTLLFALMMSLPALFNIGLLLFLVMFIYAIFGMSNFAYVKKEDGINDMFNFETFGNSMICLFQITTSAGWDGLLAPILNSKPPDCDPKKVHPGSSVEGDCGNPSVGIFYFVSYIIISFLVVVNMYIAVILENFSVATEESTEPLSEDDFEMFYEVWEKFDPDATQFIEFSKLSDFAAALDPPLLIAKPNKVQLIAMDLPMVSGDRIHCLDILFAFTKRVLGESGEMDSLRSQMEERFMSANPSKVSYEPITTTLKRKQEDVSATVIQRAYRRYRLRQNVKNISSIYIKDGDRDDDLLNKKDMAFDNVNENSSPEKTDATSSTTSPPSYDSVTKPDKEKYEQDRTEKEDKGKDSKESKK
T3 sequence (Q07699 19-218 partner): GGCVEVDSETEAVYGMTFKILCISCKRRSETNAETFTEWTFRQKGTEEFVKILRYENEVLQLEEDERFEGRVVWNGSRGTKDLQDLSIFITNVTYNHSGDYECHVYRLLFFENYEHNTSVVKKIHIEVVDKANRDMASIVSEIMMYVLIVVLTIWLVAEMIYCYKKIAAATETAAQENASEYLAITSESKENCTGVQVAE
T3 sequence (O60939 30-215 partner): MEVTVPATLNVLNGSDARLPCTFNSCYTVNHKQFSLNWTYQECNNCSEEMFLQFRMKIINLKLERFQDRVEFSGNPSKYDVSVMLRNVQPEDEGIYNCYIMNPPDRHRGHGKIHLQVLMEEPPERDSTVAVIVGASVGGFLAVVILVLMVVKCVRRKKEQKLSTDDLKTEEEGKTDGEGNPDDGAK
T2 sequence (Q15858 whole entry Y1548A/F1609A): as the sequence (Q15858 whole entry Y1548A/V1552A/M1593A) above, with A1552V, A1593M, F1609A counted along it
T2 sequence (Q07699 19-218 partner): as the sequence (Q07699 19-218 partner) above
T2 sequence (O60939 30-215 partner): as the sequence (O60939 30-215 partner) above
T1 sequence (Q15858 whole entry E1545A/E1600A): as the sequence (Q15858 whole entry Y1548A/V1552A/M1593A) above, with E1545A, A1548Y, A1552V, A1593M, E1600A counted along it
T1 sequence (Q07699 19-218 partner): as the sequence (Q07699 19-218 partner) above
T1 sequence (O60939 30-215 partner): as the sequence (O60939 30-215 partner) above

Cc1ccc(Cn2cc([C@H](CC(=O)NCCN(C)C)c3ccc(F)cc3)c3ccccc32)cc1 [WN2-R]
Effect of the mutation on antagonistic activity [1]: inhibitory effect on WN2-R activity
Effect of the mutation on antagonistic activity [2]: minimal effects
Effect of the mutation on antagonistic activity [3]: minimal effects
Time at which PWT declined to the saline group level ([4]; i.g.): 2.5 h
Time of peak PWT after administration ([4]; i.g.): 1.5 h
Paw withdrawal threshold (PWT) at 1.5 h ([4]; i.g.): 1.25 g
Time at which PWT declined to the saline group level ([4]; i.m.): 3 h
Time of peak PWT after administration ([4]; i.m.): 1.5 h
Paw withdrawal threshold (PWT) at 1.5 h ([4]; i.m.): 1.17 g
Licking time in phase I vs saline ([5]; i.g., 5 mg/kg): significantly reduced licking time
Licking time in phase II vs saline ([5]; i.g., 5 mg/kg): failed to significantly reduce licking time
Licking time in phase I vs saline ([5]; i.m., 1 mg/kg): significantly reduced licking time
Licking time in phase II vs saline ([5]; i.m., 1 mg/kg): significantly reduced licking time
